# Results published in patent US11220482B2, “Aminopyridinemethanol compounds and their use” (UNIVERSITE AMIENS PICARDIE JULES VERNE, priority 2017, dated 2022).
# Read-outs that look alike come from different tables or passages of the source.
# Legend:
# [1] = tested on: Plasmodium falciparum 3D7; test: Plasmodium falciparum susceptibility assay, first round (SYBR Green I); format: cell-based; conditions: 3D7, first round, 48-h incubation, strain susceptible to CQ, decreased susceptibility to MQ, read-out: IC50 (nM) Plasmodium falciparum 3D7 (converted)
# Plasmodium falciparum W2 = test: as above; format: cell-based; conditions: W2, first round, 48-h incubation, strain resistant to CQ, sensitive to MQ, read-out: IC50 (nM) Plasmodium falciparum W2 (converted)
# CHO-K1 cells [2] = test: In vitro micronucleus assay, short-term exposure
# Description: All the assays were conducted in duplicate. The CHO-K1 cells, suspended in McCoy's 5A medium, were transferred into Labteck wells at a concentration of 100,000 cells/mL, and incubated for 24 hours at 37° C. in CO2 (5%).
# When the test was performed without metabolic activation, the test substances were added into cell cultures at concentrations previously defined.
# When the assay was performed in the presence of metabolic activation, S9 mix metabolizing mixture was added to cell cultures at a concentration of 10%. Then the test substances were added to the cell cultures at concentrations previously defined.
# After 3 hours of incubation at 37° C. in CO2 (5%), the culture medium was removed, the cells were rinsed with phosphate buffered saline (PBS), and then returned to culture in McCoy's 5A medium containing […] of cytochalasin B. After a 21-hour incubation period at 37° C., cells were rinsed with phosphate buffered saline (PBS), fixed with methanol and stained with 10% Giemsa for 20 minutes.
# (§1) The analysis of results was performed under a microscope at ×1000 magnification. The antiproliferative activity of test substances was estimated by counting the number of binucleated cells relative to the number of mononucleated cells on a total of 500 cells for each dose (250 cells counted per well). The proliferation index (Cytokinesis Blocked Proliferative Index CBPI) was calculated using the following formula:
# (§2) The cytostasis index (CI %), i.e. the percentage of cell replication inhibition, was calculated using the following formula: CI %−100−{100×(CBPItest material−1)/(CBPIsolvent control−1)}
# (§3) The rates of micronuclei were evaluated for the presence of independent nuclear core entities in 1000 binucleated cells per well, which corresponds to 2000 cells examined by test substance dose. Micronuclei were identified as small nuclei well differentiated from cell nucleus, stained in the same manner and having a diameter less than one third of that of the cell nucleus.
# (§4) Micronuclei rates obtained for different doses of test substances were compared to the negative control by a χ2 test. The assay was considered positive if: • A dose-response relationship was obtained between the rate of micronuclei and the doses tested, • At least one of these doses induced a statistically significant increase (P<0.05) in the number of micronucleated cells as compared to the negative control.
# CHO-K1 cells [3] = conditions: Chinese hamster, 24 h
# Description: All the assays were conducted in duplicate. The CHO-K1 cells, suspended in Mac Coy's 5A medium, were transferred into Labteck wells at a concentration of 100,000 cells/mL, and incubated for 24 hours at 37° C. in CO2 (5%).
# The test was performed without metabolic activation: the test substances were added into cell cultures at concentrations previously defined. […] After 24 hours of incubation at 37° C. in CO2 (5%), the culture medium was removed, the cells were rinsed with phosphate buffered saline (PBS), and then returned in culture medium containing […] of cytochalasine B. After a 24-hour incubation period at 37° C., cells were rinsed with phosphate buffered saline (PBS), fixed with methanol and stained with 10% Giemsa for 20 minutes.
# as §1, §2, §3, §4
# Salmonella strains = test: Bacterial reverse mutation assay (Ames test), overall conclusion; format: cell-based, S. typhimurium; conditions: all tested doses, absence or presence of the metabolizing mixture
# Description: Five strains of S. typhimurium were used. […] An additional strain has been chosen to detect cross-linking mutagens, hydrazines and oxidative agents: TA102, which have an AT base pair at the primary reversion site. Salmonella tester strains were gifts from Prof. B. N. Ames (Berkeley, Calif., USA). They were stored at −80° C. and regularly checked for genetic markers.
# Few crystals of the frozen working strains were taken with a sterile pipette, and seeded in 10 mL of nutrient broth (NB No 2, Oxoid). Strains were grown overnight at 37° C. with shaking in Nutrient Broth No. 2, with ampicillin (25 μg/mL) for TA1535, TA97a, TA98, and TA 100, or ampicillin (25 μg/mL) plus tetracyclin (2 μg/mL) for TA 102. At the end of the incubation period, 0.1 mL of each overnight culture was mixed to 0.1 mL S9 Mix or 0.1 mL phosphate-buffered saline (PBS, pH 7.4) in 5 mL plastic tubes and various volumes of the tested samples were added to the mixtures. Each experiment included triplicate plates of four tested doses. A solvent (DMSO, 10 μL) control was added to determine the spontaneous frequency of revertants (quadruple plates). Five positive controls were also included to ensure the performance of the tester strains and the S9 Mix. […] After hardening, the plates were incubated at 37° C. for 48 hours.
# At the end of the incubation period, revertants were counted with a laser colony counter equipped with a bacterial enumeration program (Spiral System Instrument Inc., Bethesda, Md., USA).
# The Dunnett test was performed to determine a significant difference between the mean number of induced revertants and the mean number of spontaneous revertants.
# S. typhimurium TA98 = test: Bacterial reverse mutation assay (Ames test)
smiles,measurement,setting,value
"COC[C@H](Cc1ccccc1)NC[C@@H](O)c1cc(-c2ccc(C(F)(F)F)cc2)nc(C(F)(F)F)c1 [Compound 1i, (S)-2-(((S)-1-Methoxy-3-phenylpropan-2-yl)amino)-1-(2-(trifluoromethyl)-6-(4-(trifluoromethyl)phenyl)pyridin-4-yl)ethanol]",IC50,[1],28.3 ± 1.5 nM
same,IC50,Plasmodium falciparum W2,28.8 ± 3.8 nM
same,in vitro micronucleus assay result (clastogenic and/or aneugenic activities),CHO-K1 cells [2],negative results
same,BI (binucleated cells),CHO-K1 cells [3]; 5 μM,402
same,CBPI (Cytokinesis-Blocked Proliferative Index),CHO-K1 cells [3]; 5 μM,1.81
same,CI % (cytostasis index),CHO-K1 cells [3]; 5 μM,13%
same,MNC1 (micronucleated cell rate),CHO-K1 cells [3]; 5 μM,9 ‰
same,MNC2 (micronucleated cell rate),CHO-K1 cells [3]; 5 μM,11 ‰
same,MNC-M (mean of micronucleated cell rates),CHO-K1 cells [3]; 5 μM,10 ± 1.4 ‰
same,MONO (mononucleated cells),CHO-K1 cells [3]; 5 μM,98
same,BI (binucleated cells),CHO-K1 cells [3]; 10 μM,308
same,CBPI (Cytokinesis-Blocked Proliferative Index),CHO-K1 cells [3]; 10 μM,1.62
same,CI % (cytostasis index),CHO-K1 cells [3]; 10 μM,34%
same,MNC1 (micronucleated cell rate),CHO-K1 cells [3]; 10 μM,10 ‰
same,MNC2 (micronucleated cell rate),CHO-K1 cells [3]; 10 μM,12 ‰
same,MNC-M (mean of micronucleated cell rates),CHO-K1 cells [3]; 10 μM,11 ± 1.4 ‰
same,MONO (mononucleated cells),CHO-K1 cells [3]; 10 μM,192
same,BI (binucleated cells),CHO-K1 cells [3]; 50 μM,214
same,CBPI (Cytokinesis-Blocked Proliferative Index),CHO-K1 cells [3]; 50 μM,1.42
same,CI % (cytostasis index),CHO-K1 cells [3]; 50 μM,57%
same,MNC1 (micronucleated cell rate),CHO-K1 cells [3]; 50 μM,11 ‰
same,MNC2 (micronucleated cell rate),CHO-K1 cells [3]; 50 μM,9 ‰
same,MNC-M (mean of micronucleated cell rates),CHO-K1 cells [3]; 50 μM,10 ± 1.4 ‰
same,MONO (mononucleated cells),CHO-K1 cells [3]; 50 μM,286
same,mutagenic activity in Salmonella strains (revertant rates),Salmonella strains,No significant increase in revertant rates
same,"Number of revertants by plate (Means ± SD), TA1535","S. typhimurium TA1535; with S9 mix, 0.4 μg/plate",23 ± 6^NS
same,"Number of revertants by plate (Means ± SD), TA1535","S. typhimurium TA1535; with S9 mix, 0.6 μg/plate",29 ± 4^NS
same,"Number of revertants by plate (Means ± SD), TA1535","S. typhimurium TA1535; with S9 mix, 0.8 μg/plate",27 ± 5^NS
same,"Number of revertants by plate (Means ± SD), TA1535","S. typhimurium TA1535; with S9 mix, 1 μg/plate",29 ± 9^NS
same,"Number of revertants by plate (Means ± SD), TA1535","S. typhimurium TA1535; without S9 mix, 0.4 μg/plate",22 ± 4^NS
same,"Number of revertants by plate (Means ± SD), TA1535","S. typhimurium TA1535; without S9 mix, 0.6 μg/plate",29 ± 6^NS
same,"Number of revertants by plate (Means ± SD), TA1535","S. typhimurium TA1535; without S9 mix, 0.8 μg/plate",28 ± 5^NS
same,"Number of revertants by plate (Means ± SD), TA1535","S. typhimurium TA1535; without S9 mix, 1 μg/plate",20 ± 4^NS
same,"Number of revertants by plate (Means ± SD), TA97a","S. typhimurium TA97a; with S9 mix, 0.4 μg/plate",132 ± 11^NS
same,"Number of revertants by plate (Means ± SD), TA97a","S. typhimurium TA97a; with S9 mix, 0.6 μg/plate",137 ± 2^NS
same,"Number of revertants by plate (Means ± SD), TA97a","S. typhimurium TA97a; with S9 mix, 0.8 μg/plate",127 ± 9^NS
same,"Number of revertants by plate (Means ± SD), TA97a","S. typhimurium TA97a; with S9 mix, 1 μg/plate",124 ± 4^NS
same,"Number of revertants by plate (Means ± SD), TA97a","S. typhimurium TA97a; without S9 mix, 0.4 μg/plate",153 ± 5^NS
same,"Number of revertants by plate (Means ± SD), TA97a","S. typhimurium TA97a; without S9 mix, 0.6 μg/plate",163 ± 4^NS
same,"Number of revertants by plate (Means ± SD), TA97a","S. typhimurium TA97a; without S9 mix, 0.8 μg/plate",164 ± 5^NS
same,"Number of revertants by plate (Means ± SD), TA97a","S. typhimurium TA97a; without S9 mix, 1 μg/plate",144 ± 11^NS
same,"Number of revertants by plate (Means ± SD), TA100","S. typhimurium TA100; with S9 mix, 0.4 μg/plate",191 ± 11^NS
same,"Number of revertants by plate (Means ± SD), TA100","S. typhimurium TA100; with S9 mix, 0.6 μg/plate",173 ± 10^NS
same,"Number of revertants by plate (Means ± SD), TA100","S. typhimurium TA100; with S9 mix, 0.8 μg/plate",182 ± 10^NS
same,"Number of revertants by plate (Means ± SD), TA100","S. typhimurium TA100; with S9 mix, 1 μg/plate",174 ± 10^NS
same,"Number of revertants by plate (Means ± SD), TA100","S. typhimurium TA100; without S9 mix, 0.4 μg/plate",200 ± 7^NS
same,"Number of revertants by plate (Means ± SD), TA100","S. typhimurium TA100; without S9 mix, 0.6 μg/plate",199 ± 10^NS
same,"Number of revertants by plate (Means ± SD), TA100","S. typhimurium TA100; without S9 mix, 0.8 μg/plate",209 ± 17^NS
same,"Number of revertants by plate (Means ± SD), TA100","S. typhimurium TA100; without S9 mix, 1 μg/plate",205 ± 21^NS
same,"Number of revertants by plate (Means ± SD), TA102","S. typhimurium TA102; with S9 mix, 0.4 μg/plate",351 ± 6^NS
same,"Number of revertants by plate (Means ± SD), TA102","S. typhimurium TA102; with S9 mix, 0.6 μg/plate",355 ± 16^NS
same,"Number of revertants by plate (Means ± SD), TA102","S. typhimurium TA102; with S9 mix, 0.8 μg/plate",376 ± 10^NS
same,"Number of revertants by plate (Means ± SD), TA102","S. typhimurium TA102; with S9 mix, 1 μg/plate",362 ± 4^NS
same,"Number of revertants by plate (Means ± SD), TA102","S. typhimurium TA102; without S9 mix, 0.4 μg/plate",332 ± 19^NS
same,"Number of revertants by plate (Means ± SD), TA102","S. typhimurium TA102; without S9 mix, 0.6 μg/plate",293 ± 4^NS
same,"Number of revertants by plate (Means ± SD), TA102","S. typhimurium TA102; without S9 mix, 0.8 μg/plate",328 ± 14^NS
same,"Number of revertants by plate (Means ± SD), TA102","S. typhimurium TA102; without S9 mix, 1 μg/plate",347 ± 11^NS
same,"Number of revertants by plate (Means ± SD), TA98","S. typhimurium TA98; with S9 mix, 0.4 μg/plate",24 ± 2^NS
same,"Number of revertants by plate (Means ± SD), TA98","S. typhimurium TA98; with S9 mix, 0.6 μg/plate",18 ± 3^NS
same,"Number of revertants by plate (Means ± SD), TA98","S. typhimurium TA98; with S9 mix, 0.8 μg/plate",17 ± 1^NS
same,"Number of revertants by plate (Means ± SD), TA98","S. typhimurium TA98; with S9 mix, 1 μg/plate",20 ± 2^NS
same,"Number of revertants by plate (Means ± SD), TA98","S. typhimurium TA98; without S9 mix, 0.4 μg/plate",32 ± 3^NS
same,"Number of revertants by plate (Means ± SD), TA98","S. typhimurium TA98; without S9 mix, 0.6 μg/plate",33 ± 3^NS
same,"Number of revertants by plate (Means ± SD), TA98","S. typhimurium TA98; without S9 mix, 0.8 μg/plate",33 ± 3^NS
same,"Number of revertants by plate (Means ± SD), TA98","S. typhimurium TA98; without S9 mix, 1 μg/plate",34 ± 7^NS
